Among the data in patent publication US20230159532A1, “PARATHYROID HORMONE (PTH) RECEPTOR ANTAGONISTS AND USES THEREOF” (Crinetics Pharmaceuticals, Inc., priority 2021, published 2023) are Ki values, retold here.

The target of the test is T1, human PTHR1 receptor (Homo sapiens, UniProt Q03431).
T1 construct: purchased Eurofins HTS030M
T1 sequence (Q03431 27-593): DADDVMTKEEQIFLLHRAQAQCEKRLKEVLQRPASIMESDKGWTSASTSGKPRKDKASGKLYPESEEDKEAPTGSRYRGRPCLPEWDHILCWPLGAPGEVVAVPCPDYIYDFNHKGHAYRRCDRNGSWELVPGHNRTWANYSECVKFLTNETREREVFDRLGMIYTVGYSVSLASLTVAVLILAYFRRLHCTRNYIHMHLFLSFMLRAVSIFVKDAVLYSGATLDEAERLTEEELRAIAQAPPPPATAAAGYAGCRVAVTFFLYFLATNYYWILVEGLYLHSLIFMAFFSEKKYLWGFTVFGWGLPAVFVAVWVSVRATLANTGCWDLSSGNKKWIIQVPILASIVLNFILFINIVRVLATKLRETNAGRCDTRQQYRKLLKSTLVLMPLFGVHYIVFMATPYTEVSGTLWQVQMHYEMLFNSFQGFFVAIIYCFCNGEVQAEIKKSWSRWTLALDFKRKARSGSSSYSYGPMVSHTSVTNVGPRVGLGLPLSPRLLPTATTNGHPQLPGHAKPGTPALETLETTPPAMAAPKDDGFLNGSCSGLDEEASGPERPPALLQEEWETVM
Put plainly: Competitive antagonist binding assay for hPTH-R1 (radioactive competition binding, SPA beads). The conditions noted are these: human PTHR1 membranes, [125I]-[Nle8,18,Tyr34]-PTH(1-34) 0.2 nM, 90 minutes at room temperature; read-out: hPTHR1 Ki. The method in brief: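 Displacement of 0.2 nM radioiodinated [Nle8,18,Tyr34]-PTH(1-34) from membrane-bound human PTHR1 measured by scintillation proximity after 90 min at room temperature. Compounds typically 0-10,000 nM final, pH 7.4 HEPES/Mg/Ca buffer with BSA and detergent. Ki calculated from competition data.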

Turning to `CCN1C(=O)N(c2c(F)cc(NCCNC[C@@H](C)O)cc2F)c2cc(C#N)ccc2-c2cc(Cl)cnc21` [1-186, 4-chloro-10-{2,6-difluoro-4-[(2-{[(2R)-2-hydroxypropyl]amino}ethyl)amino]phenyl}-8-ethyl-9-oxo-6,8,10-triazatricyclo[9.4.0.0^2,7]pentadeca-1(11),2(7),3,5,12,14-hexaene-13-carbonitrile], the Ki is < 100 nM.
Next, `CCN1C(=O)N(c2c(F)cc(NCCN[C@H]3C[C@H](O)C3)cc2F)c2cc(C#N)ccc2-c2cc(Cl)cnc21` [1-187, 4-chloro-10-{2,6-difluoro-4-[(2-{[(1r,3r)-3-hydroxycyclobutyl]amino}ethyl)amino]phenyl}-8-ethyl-9-oxo-6,8,10-triazatricyclo[9.4.0.0^2,7]pentadeca-1(11),2(7),3,5,12,14-hexaene-13-carbonitrile]: < 100 nM.
For the compound `CCN1C(=O)N(c2c(F)cc(NCCNCCOC(N)=O)cc2F)c2cc(C#N)ccc2-c2cc(Cl)cnc21` [1-189, 2-({2-[(4-{4-chloro-13-cyano-8-ethyl-9-oxo-6,8,10-triazatricyclo[9.4.0.0^2,7]pentadeca-1(11),2(7),3,5,12,14-hexaen-10-yl}-3,5-difluorophenyl)amino]ethyl}amino)ethyl carbamate], the Ki was < 100 nM.
To `CCN1C(=O)N(c2c(F)cc(NCCNCCCO)cc2F)c2cc(C#N)ccc2-c2cc(Cl)cnc21` [1-190, 4-chloro-10-[2,6-difluoro-4-({2-[(3-hydroxypropyl)amino]ethyl}amino)phenyl]-8-ethyl-9-oxo-6,8,10-triazatricyclo[9.4.0.0^2,7]pentadeca-1(11),2(7),3,5,12,14-hexaene-13-carbonitrile] belongs < 100 nM; to `CCN1C(=O)N(c2c(F)cc(NCCNCCN3CCOC3=O)cc2F)c2cc(C#N)ccc2-c2cc(Cl)cnc21` [1-191, 4-chloro-10-{2,6-difluoro-4-[(2-{[2-(2-oxo-1,3-oxazolidin-3-yl)ethyl]amino}ethyl)amino]phenyl}-8-ethyl-9-oxo-6,8,10-triazatricyclo[9.4.0.0^2,7]pentadeca-1(11),2(7),3,5,12,14-hexaene-13-carbonitrile], < 100 nM; to `CCN1C(=O)N(c2c(F)cc(NCCN[C@H]3C[C@@H](O)C3)cc2F)c2cc(C#N)ccc2-c2cc(Cl)cnc21` [1-192, 4-chloro-10-{2,6-difluoro-4-[(2-{1[(1s,3s)-3-hydroxycyclobutyl]amino}ethyl)amino]phenyl}-8-ethyl-9-oxo-6,8,10-triazatricyclo[9.4.0.0^2,7]pentadeca-1(11),2(7),3,5,12,14-hexaene-13-carbonitrile], < 100 nM.
For the compound `CCN1C(=O)N(c2c(F)cc(NCCN[C@H]3CC[C@H](C(=O)O)CC3)cc2F)c2cc(C#N)ccc2-c2cc(Cl)cnc21` [1-193, (1r,4r)-4-({2-[(4-{4-chloro-13-cyano-8-ethyl-9-oxo-6,8,10-triazatricyclo[9.4.0.0^2,7]pentadeca-1(11),2(7),3,5,12,14-hexaen-10-yl}-3,5-difluorophenyl)amino]ethyl}amino)cyclohexane-1-carboxylic acid], the Ki was < 100 nM.
For the compound `CCN1C(=O)N(c2c(F)cc(NCCNC[C@@H](O)CO)cc2F)c2cc(C#N)ccc2-c2cc(F)cnc21` [1-194, 10-{4-[(2-{[(2R)-2,3-dihydroxypropyl]amino}ethyl)amino]-2,6-difluorophenyl}-8-ethyl-4-fluoro-9-oxo-6,8,10-triazatricyclo[9.4.0.0^2,7]pentadeca-1(11),2(7),3,5,12,14-hexaene-13-carbonitrile], the Ki was < 100 nM.
Next, `CN1C(=O)N(c2c(F)cc(NCCNCCO)cc2F)c2cc(C#N)ccc2-c2cc(Cl)cnc21` [1-195, 4-chloro-10-[2,6-difluoro-4-({2-[(2-hydroxyethyl)amino]ethyl}amino)phenyl]-8-methyl-9-oxo-6,8,10-triazatricyclo[9.4.0.0^2,7]pentadeca-1(11),2(7),3,5,12,14-hexaene-13-carbonitrile]: < 100 nM.
Next, `CCN1C(=O)N(c2c(F)cc(NCCN[C@@H]3CC[C@H]3O)cc2F)c2cc(C#N)ccc2-c2cc(C(F)(F)F)cnc21` [1-196, 10-{2,6-difluoro-4-[(2-{[(1R,2R)-2-hydroxycyclobutyl]amino}ethyl)amino]phenyl}-8-ethyl-9-oxo-4-(trifluoromethyl)-6,8,10-triazatricyclo[9.4.0.0^2,7]pentadeca-1(11),2(7),3,5,12,14-hexaene-13-carbonitrile]: < 100 nM.
Take `CN1C(=O)N(c2c(F)cc(NCCNCCCO)cc2F)c2cc(C#N)ccc2-c2cc(Cl)cnc21` [1-197, 4-chloro-10-[2,6-difluoro-4-({2-[(3-hydroxypropyl)amino]ethyl}amino)phenyl]-8-methyl-9-oxo-6,8,10-triazatricyclo[9.4.0.0^2,7]pentadeca-1(11),2(7),3,5,12,14-hexaene-13-carbonitrile]: the Ki is < 100 nM.
Next, `CN1C(=O)N(c2c(F)cc(NCCN[C@H]3C[C@H](O)C3)cc2F)c2cc(C#N)ccc2-c2cc(Cl)cnc21` [1-198, 4-chloro-10-{2,6-difluoro-4-[(2-{[(1r,3r)-3-hydroxycyclobutyl]amino}ethyl)amino]phenyl}-8-methyl-9-oxo-6,8,10-triazatricyclo[9.4.0.0^2,7]pentadeca-1(11),2(7),3,5,12,14-hexaene-13-carbonitrile]: < 100 nM.
As for `CCN1C(=O)N(c2c(F)cc(NCCNC[C@H](C)O)cc2F)c2cc(C#N)ccc2-c2cc(F)cnc21` [1-199, 10-{2,6-difluoro-4-[(2-{[(2S)-2-hydroxypropyl]amino}ethyl)amino]phenyl}-8-ethyl-4-fluoro-9-oxo-6,8,10-triazatricyclo[9.4.0.0^2,7]pentadeca-1(11),2(7),3,5,12,14-hexaene-13-carbonitrile], the Ki is < 100 nM.
Next, `CCN1C(=O)N(c2c(F)cc(NCCNC[C@H](O)CO)cc2F)c2cc(C#N)ccc2-c2cc(F)cnc21` [1-200, 10-{4-[(2-{[(2S)-2,3-dihydroxypropyl]amino}ethyl)amino]-2,6-difluorophenyl}-8-ethyl-4-fluoro-9-oxo-6,8,10-triazatricyclo[9.4.0.0^2,7]pentadeca-1(11),2(7),3,5,12,14-hexaene-13-carbonitrile]: < 100 nM.
To `CN1C(=O)N(c2c(F)cc(NCCNCCCC(=O)O)cc2F)c2cc(C#N)ccc2-c2cc(Cl)cnc21` [1-201, 4-({2-[(4-{4-chloro-13-cyano-8-methyl-9-oxo-6,8,10-triazatricyclo[9.4.0.0^2,7]pentadeca-1(11),2(7),3,5,12,14-hexaen-10-yl}-3,5-difluorophenyl)amino]ethyl}amino)butanoic acid] belongs < 100 nM; to `CCN1C(=O)N(c2c(F)cc(NCCN[C@@H](CO)CC(=O)O)cc2F)c2cc(C#N)ccc2-c2cc(Cl)cnc21` [1-202, (3R)-3-({2-[(4-{4-chloro-13-cyano-8-ethyl-9-oxo-6,8,10-triazatricyclo[9.4.0.0^2,7]pentadeca-1(11),2(7),3,5,12,14-hexaen-10-yl}-3,5-difluorophenyl)amino]ethyl}amino)-4-hydroxybutanoic acid], < 100 nM.
On to `CCN1C(=O)N(c2c(F)cc(NCCNC[C@@H](C)O)cc2F)c2cc(C#N)ccc2-c2cc(F)cnc21` [1-203, 10-{2,6-difluoro-4-[(2-{[(2R)-2-hydroxypropyl]amino}ethyl)amino]phenyl}-8-ethyl-4-fluoro-9-oxo-6,8,10-triazatricyclo[9.4.0.0^2,7]pentadeca-1(11),2(7),3,5,12,14-hexaene-13-carbonitrile], for which the Ki is < 100 nM.
Consider `CCN1C(=O)N(c2c(F)cc(NCCN[C@@H]3CC[C@@H]3O)cc2F)c2cc(C#N)ccc2-c2cc(F)cnc21` [1-204, 10-{2,6-difluoro-4-[(2-{[(1R,2S)-2-hydroxycyclobutyl]amino}ethyl)amino]phenyl}-8-ethyl-4-fluoro-9-oxo-6,8,10-triazatricyclo[9.4.0.0^2,7]pentadeca-1(11),2(7),3,5,12,14-hexaene-13-carbonitrile], for which the Ki is < 100 nM.
With `C[C@@H](CO)NCCNc1cc(F)c(N2C(=O)N(C)c3ncc(Cl)cc3-c3ccc(C#N)cc32)c(F)c1` [1-205, 4-chloro-10-{2,6-difluoro-4-[(2-{[(2S)-1-hydroxypropan-2-yl]amino}ethyl)amino]phenyl}-8-methyl-9-oxo-6,8,10-triazatricyclo[9.4.0.0^2,7]pentadeca-1(11),2(7),3,5,12,14-hexaene-13-carbonitrile], the Ki was < 100 nM.
Next, `CCN1C(=O)N(c2c(F)cc(NCCN[C@H]3C[C@H](C(=O)O)C3)cc2F)c2cc(C#N)ccc2-c2cc(Cl)cnc21` [1-206, (1r,3r)-3-({2-[(4-{4-chloro-13-cyano-8-ethyl-9-oxo-6,8,10-triazatricyclo[9.4.0.0^2,7]pentadeca-1(11),2(7),3,5,12,14-hexaen-10-yl}-3,5-difluorophenyl)amino]ethyl}amino)cyclobutane-1-carboxylic acid]: < 100 nM.

In general, Ki refers to a dissociation constant, usually derived from enzyme kinetics or from competition with a known ligand.
